Activity calls are given as the source filed them. No cut-off for these calls is given here.
How the values were obtained:
Homo sapiens [1] = species on record: Homo sapiens; test: Cleavage of DNA at 360 uM
Homo sapiens [2] = species on record: Homo sapiens; test: Cleavage of DNA at 180 uM
Homo sapiens [3] = species on record: Homo sapiens; test: Cleavage of DNA at 180 uM in anaerobic condition
Homo sapiens [4] = species on record: Homo sapiens; test: Cleavage of DNA at 180 uM in presence of cysteine

Q: `C[S+]([O-])c1ccccc1` (centres undefined) was tested. Which Activity (Homo sapiens [1]) did it give?
A: The Activity was “Active”.

Q: How did the Activity (Homo sapiens [2]) turn out when `[O-][S+](c1ccccc1)c1ccccc1` was run?
A: The Activity was “Active”.

Q: And the Activity (Homo sapiens [3])?
A: Its Activity is “inactive”.

Q: What about the Activity (Homo sapiens [4]) of the same compound?
A: Its Activity is “inactive”.

Source: ChEMBL document CHEMBL1140537, “DNA cleavage by photolysis of aryl sulfoxides” (Bioorg Med Chem Lett, 2007)
